This note sets out measurements from US10052323B2, “Pharmaceutical compositions of 7-(6-(2-hydroxypropan-2-yl)pyridin-3-yl)-1-(trans)-4-methoxycyclohexyl)-3,4-dihydropyrazino [2,3-b]pyrazin-2(1H)-one, a solid form thereof and methods of their use” (Signal Pharmaceuticals, LLC, priority 2013, dated 2018).

SMILES strings stand for the structures. Read-outs that look alike come from different tables or passages of the source.

A short description of data set [1]: Susceptibility of Compound A to hydrolysis. It is filed as physicochemical.
Data set [2] in a line: Phase 1 crossover pharmacokinetics after a single oral 20 mg dose of tablet and capsule formulations. It is filed as in vivo, human. As for the experimental part: Certain formulations provided herein were evaluated in a Phase 1, open-label, randomized, crossover study.
On Day 1 of Period 1, following an overnight fast of at least 8 hours, subjects were randomized to one of the following 3 sequences to receive Treatment A, B or C (Table 35).
In Treatment A, one 20-mg reference Compound A API-in-capsule was administered orally after at least 8 hour fast with 240 mL of non-carbonated, room temperature water. In Treatment B, one 20-mg tablet of Compound A (Tablet Formulation XIII) was administered under fasted conditions. In Treatment C, four 5-mg tablets of Compound A (Tablet Formulation XIV) were administered under fasted conditions. The 20-mg tablet and four 5-mg tablets were administered orally after at least 8 hour fast with 240 mL of non-carbonated, room temperature water.
For each period, serial blood samples were collected before dosing (zero hour) and at 0.5, 1, 1.5, 2, 2.5, 3, 4, 6, 8, 12, 24, 48, 72, and 96 hours after dosing. Plasma concentrations of Compound A were determined for determining PK parameters, such as AUC0-t, AUC0-∞, Cmax, Tmax, t1/2, CL/F, and Vz/F for Compound A. Plasma PK parameters were calculated using non compartmental methods. Analyses of variance (ANOVA) were performed on the natural log-transformed AUC0-t, AUC0-∞, and Cmax for Compound A. The geometric mean ratios (test/reference) and their 90% confidence intervals were also calculated. For Tmax, non parametric analysis was used to produce median differences.

A short description of data set [3]: Phase 1 food effect study (Part 2), single 20-mg oral dose of Compound A tablet, fed vs fasted. The class given is in vivo, human. How it is done: The primary objectives of this study are: to characterize the biotransformation and excretion of Compound A following a single 20 mg oral dose of Compound A capsule containing a microtracer of [^14C]-Compound A solution in healthy male subjects (Part 1) and to evaluate the effect of a high-fat meal on the pharmacokinetics (PK) of Compound A following a single oral 20-mg dose of Compound A tablet (Part 2).
Part 2 design: Part 2 will be a 2-period crossover study; in Period 1, subjects (n=12) will be randomized to receive either an oral 20 mg dose of Compound A tablet (Treatment B) under fed (n=6) or fasted (n=6) conditions. In Period 2, subjects will receive Treatment B under converse conditions based on treatment assignment in Period 1. After screening, subjects (n=12) eligible for participation in the study will return to the study center on Day −1 for baseline assessments. Subjects who continue to be qualified for participation in the study will be randomized and enrolled in the study on the morning of Day 1. Subjects (n=6) will be enrolled and randomized to receive Treatment B under fed or fasted conditions on the morning of Day 1 after fasting for at least 8 hours. Fed subjects will be served a standard high fat meal breakfast, or its equivalent, that must be consumed within 30 minutes from serving. Dosing must occur 30 minutes (±5 minutes) after serving a subject breakfast. All subjects (fed and fasted) will fast (not to consume any food) until 4 hours post dose. Water will be allowed during the fasting period. Subjects will be domiciled at the study center from Day −1 until the morning of Day 5 of each period. Subjects will be discharged from the study center on the morning of Day 5 upon satisfactory safety review and completion of study-related procedures. Safety and tolerability data will be monitored and collected following each dosing period. Periods 1 and 2 will be separated by a washout period of at least 7 days (no more than 10 days) from prior dose to the next dose. In certain instances, a longer washout may be acceptable if previously agreed to.
Serial blood samples (10 mL) will be collected at predose (0 hour) and at 0.5, 1, 2, 3, 6, 12, 24, 48, 72 and 96 hours post dose for the determination of plasma concentrations of Compound A and the O-desmethyl metabolite of Compound A. Safety will be monitored throughout the study; safety evaluations will include AE reporting, physical examinations, vital sign measurements, ECG, and clinical laboratory safety tests. Concomitant medications will be assessed and recorded throughout the study as well. In addition, during the subjects' stay-in-the clinic (i.e., confinement period), fasting plasma glucose levels will be monitored as part of the clinical laboratory safety tests. For Parts 1 and 2, all subjects will return to the clinic within 7 to 10 days after the last dose for follow up safety assessments. In the event that a subject discontinues prematurely from the study, every reasonable effort should be made (and documented) to ensure that all procedures and evaluations scheduled for the follow-up visit are performed at the time of discontinuation or a follow-up visit should be scheduled within 7 to 10 days from the discontinuation day.
Part 2 dosing: In Part 2, subjects will fast overnight for at least 8 hours prior to Compound A administration. On the morning of Day 1, each subject will receive a 20-mg tablet of Compound A orally. Subjects randomized to receive Compound A under fed conditions will be a served a standard high fat meal (breakfast).
The standard high fat meal or its equivalent must be consumed within 30 minutes of serving. Dosing must occur 30 minutes (±5 minutes) after serving the meal. The tablet will be administered with approximately 240 mL of non-carbonated, room temperature water. After dosing, subjects will continue to fast until 4 hours after dosing.

Data set [4] is described as follows: Pharmacokinetics of metabolite after 7.5-60 mg Compound A (protocol of U.S. provisional 61/653,436). The class given is in vivo, human. Particulars: for concentration at 15 day: human, in vivo, read-out: Ctrough. How it is done: In certain embodiments, the pharmacokinetic parameters in connection with the metabolite of Compound A produced via administration of 7.5 mg, 15 mg, 30 mg, 45 mg and 60 mg of Compound A are obtained using the protocol set forth in Section 5.2.1 (paragraphs [00497]-[00520]) of U.S. provisional application No. 61/653,436, filed May 31, 2012, which is incorporated by reference herein in its entirety.
In certain embodiments, the pharmacokinetic parameters set forth herein are mean values obtained from multiple subjects.

Data set [5] can be described thus: Hygroscopicity by moisture adsorption/desorption (DVS). The class given is physicochemical. As for the experimental part: Sorption isotherms were obtained using a SMS DVS Intrinsic moisture sorption analyser, controlled by DVS Intrinsic Control software v1.0.0.30. The sample temperature was maintained at 25° C. by the instrument controls. The humidity was controlled by mixing streams of dry and wet nitrogen, with a total flow rate of 200 mL/min. The relative humidity was measured by a calibrated Rotronic probe (dynamic range of 1.0-100% RH), located near the sample. The weight change, (mass relaxation) of the sample as a function of % RH was constantly monitored by the microbalance (accuracy±0.005 mg). Typically 5-20 mg of sample was placed in a tared mesh stainless steel basket under ambient conditions. The sample was loaded and unloaded at 40% RH and 25° C. (typical room conditions). The standard isotherm was performed at 25° C. at 10% RH intervals over a 0-90% RH range. Data analysis was undertaken in Microsoft Excel using DVS Analysis Suite v6.0.0.7.
Hygroscopicity of Form A was determined by moisture adsorption and desorption.

The mark [6] stands for this setting: fed vs fasted, 20 mg Compound A tablet, healthy adult males.
[7] abbreviates: plasma, single 20-mg oral dose of Compound A tablet, Fasted (n = 11).
[8] abbreviates: plasma, single 20-mg oral dose of Compound A tablet, Fed, high fat meal (n = 11).
[9] abbreviates: day 1 of administration of about 45 mg of Compound A.
[10] abbreviates: day 1 of administration of about 60 mg of Compound A.
The mark [11] stands for this setting: upon administration of about 45 mg of Compound A.

Regarding `CO[C@H]1CC[C@H](N2C(=O)CNc3ncc(-c4ccc(C(C)(C)O)nc4)nc32)CC1` [Compound A, 7-(6-(2-hydroxypropan-2-yl)pyridin-3-yl)-1-((trans)-4-methoxycyclohexyl)-3,4-dihydropyrazino[2,3-b]pyrazin-2(1H)-one], the susceptibility to hydrolysis result in data set [1] is “susceptible to hydrolysis”. Besides, the “CL/F (L/h), geometric mean (geometric CV %)” value in data set [2] (plasma, single 20 mg oral dose of Compound A, fasted healthy adult males, Treatment A = API-in-capsule, B = one 20-mg tablet, C = four 5-mg tablets (analyte Compound A)) is 20.3 (23) L/h. Also, in data set [2] (single dose 20 mg, healthy adult male subjects), the “pharmacokinetics of tablet formulations versus API in capsule” value was “comparable”. In data set [3] (setting [6]), the “decrease in Cmax with a high fat meal” value is approximately 17%, the “delay in Tmax with a high fat meal” value came to 2 h and the “increase in overall exposure (AUCinf) with a high fat meal” value is approximately 20%. Besides, the “CL/F (L/h), geometric mean (CV %)” value in data set [3] (setting [7]) is 19.9 (38) L/h. In addition, the “CL/F (L/h), geometric mean (CV %)” value in data set [3] (setting [8]) is recorded as 16.7 (38) L/h.

In the case of `CC(C)(O)c1ccc(-c2cnc3c(n2)N([C@H]2CC[C@H](O)CC2)C(=O)CN3)cn1` [O-Desmethyl metabolite, 1-((trans)-4-hydroxycyclohexyl)-7-(6-(2-hydroxypropan-2-yl)pyridin-3-yl)-3,4-dihydropyrazino[2,3-b]pyrazin-2(1H)-one], the Tax was determined as 3 h in data set [2] (metabolite, upon administration of about 20 mg of Compound A (protocol of Section 6.5.1)); 3 h in data set [4] (setting [9]); 5 h in data set [4] (setting [10]); 2 h in data set [4] (day 15 of once a day administration of about 30 mg of Compound A); 2 h in data set [4] (day 15 of once a day administration of about 45 mg of Compound A); 3 h in data set [4] (day 15 of once a day administration of about 60 mg of Compound A). Moreover, in data set [4] (setting [11]), the Tax was determined as 3 h. In addition, in data set [3] (setting [6]), the “decrease in Cmax with a high fat meal” value was approximately 17%. The “increase in overall exposure (AUCinf) with a high fat meal” value in data set [3] (setting [6]) is approximately 3%. Moreover, the figures for the “CL/F (L/h), geometric mean (CV %)” value in data set [3] (setting [7]) and in data set [3] (setting [8]) were 2.0 (38) L/h and 2.0 (36) L/h, respectively. The “t1/2 (h), geometric mean (CV %)” value in data set [3] (setting [8]) is listed as 14.9 (29) h. Besides, the tin in data set [4] (day 1 of administration of about 30 mg of Compound A) turned out to be 21 h; in data set [4] (setting [9]), 17 h; in data set [4] (setting [10]), 16 h. Also, the concentration at 15 day came out at 267 ng/mL in data set [4] (day 15 of once a day administration of about 7.5 mg of Compound A) and 145 ng/mL in data set [4] (day 15 of once a day administration of about 15 mg of Compound A). Moreover, the t1/2 in data set [4] (setting [11]) amounted to 14.7 h.

On to `CO[C@H]1CC[C@H](N2C(=O)CNc3ncc(-c4ccc(C(C)(C)O)nc4)nc32)CC1` [Form A, 7-(6-(2-hydroxypropan-2-yl)pyridin-3-yl)-1-((trans)-4-methoxycyclohexyl)-3,4-dihydropyrazino[2,3-b]pyrazin-2(1H)-one], for which the “XRPD diffractogram after full adsorption/desorption cycle” value in data set [5] (DVS cycle, 25° C.) is listed as “unchanged from the initial Form A”. Also, the hygroscopicity result in data set [5] (DVS moisture sorption/desorption) is reported as “not hygroscopic”. In data set [5] (DVS, 25° C., between 0 and 80% relative humidity), this molecule had a water uptake of less than 0.1 % w/w.
